Measurements reported in patent publication US20100173958A1, “COMPOUNDS FOR THE INHIBITION OF DGAT1 ACTIVITY” (priority 2006, published 2010).

Target: T1, human DGAT1 (Homo sapiens, UniProt O75907)
T1 construct: made in house; host or cells: Sf9 insect cells (recombinant baculovirus); membrane fraction used
T1 sequence (O75907 1-488): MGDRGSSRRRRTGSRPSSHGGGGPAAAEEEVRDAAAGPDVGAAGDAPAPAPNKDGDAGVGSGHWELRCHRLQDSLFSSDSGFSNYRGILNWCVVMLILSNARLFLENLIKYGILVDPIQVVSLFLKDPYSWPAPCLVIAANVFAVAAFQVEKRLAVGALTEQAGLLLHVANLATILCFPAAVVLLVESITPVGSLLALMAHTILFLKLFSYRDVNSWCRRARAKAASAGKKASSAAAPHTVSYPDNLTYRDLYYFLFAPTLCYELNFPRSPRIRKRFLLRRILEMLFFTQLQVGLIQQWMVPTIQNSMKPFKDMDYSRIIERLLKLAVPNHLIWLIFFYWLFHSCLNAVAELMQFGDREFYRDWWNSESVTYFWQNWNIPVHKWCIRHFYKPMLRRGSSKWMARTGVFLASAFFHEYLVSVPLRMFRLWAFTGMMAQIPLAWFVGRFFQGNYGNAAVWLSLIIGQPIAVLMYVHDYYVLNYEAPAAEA
Assay: Human Enzyme Assay (DGAT1 inhibition)
Format: biochemical
Conditions: human DGAT1 expressed in insect cell (sf9) membranes; 14C oleoyl coenzyme A, 30 minutes at room temperature
Experimental: The in vitro assay to identify DGAT1 inhibitors uses human DGAT1 expressed in insect cell membranes as the enzyme source (Proc. Natl. Acad. Sci. 1998, 95, 13018-13023). Briefly, sf9 cells were infected with recombinant baculovirus containing human DGAT1 coding sequences and harvested after 48 h. Cells were lysed by sonication and membranes isolated by centrifuging at 28000 rpm for 1 h at 4° C. on a 41% sucrose gradient. The membrane fraction at the interphase was collected, washed, and stored in liquid nitrogen.
DGAT1 activity was assayed by a modification of the method described by Coleman (Methods in Enzymology 1992, 209, 98-102). Compound at 1-10 μM was incubated with 0.4 μg membrane protein, 5 mM MgCl2, and 100 μM 1,2 dioleoyl-sn-glycerol in a total assay volume of 200 μl in plastic tubes. The reaction was started by adding ^14C oleoyl coenzyme A (30 μM final concentration) and incubated at room temperature for 30 minutes. The reaction was stopped by adding 1.5 mL 2-propanol:heptane:water (80:20:2). Radioactive triolein product was separated into the organic phase by adding 1 mL heptane and 0.5 mL 0.1 M carbonate buffer pH 9.5. DGAT1 activity was quantified by counting aliquots of the upper heptane layer by liquid scintillography.

- IC50: 290 nM
Compound: O=C(Nc1ccc(S(=O)(=O)C2CCC(C(=O)O)CC2)cc1)c1nnc(Nc2cc(F)c(F)c(F)c2)o1 (mixture of isomers) [Example 1, 4-[4-[[5-[(3,4,5-Trifluorophenyl)amino]1,3,4-oxadiazole-2-carbonyl]amino]phenyl]sulfonylcyclohexane-1-carboxylic acid]
